Measurements reported in publication PMC9503778, “Targeted Isolation of Antibiotic Brominated Alkaloids from the Marine Sponge Pseudoceratina durissima Using Virtual Screening and Molecular Networking” (Marine Drugs, 2022).
pIC50: −log10 of the molar value. In brackets after ≈: the same amount, converted by molar mass.

Legend:
S. aureus = system: S. aureus; design: method as in PMID 8297426; details: tested at 100 µg/mL; cited from earlier work
HIV = system: HIV; design: method as in earlier work; details: read-out: IC50 against HIV; cited from earlier work
[1] = system: zebrafish (Danio rerio) larvae at 5 dpf; test: Zebrafish Larval Photo-motor Response (LPR) bioassay; assay type: in vivo; details: 1 nM, 10 nM and 100 nM
Protocol: (§1) For the zebrafish bioactivity assay, three experiments were performed on 5 days post fertilization (dpf) zebrafish larvae treated with methanol crude extracts from all four sponge specimens, using total distance moved as an endpoint metric. Spontaneous swimming experiments were performed according to the following protocol: allowing a 2 min acclimatization period in darkness followed by a 5 min darkness swimming period, where total distance moved was measured. Simulated predator response (SPR) experiments were performed involving a 2 min acclimatization period in light conditions, followed by 3 min in light free swimming and a measurement period of 3 mins in dark. Finally, a Larval Photo-motor Response (LPR) experiment was conducted beginning with 2 mins light acclimatization followed by three cycles of alternating photic stimulus (each cycle consisting of 4 min light –4 min dark conditions to assess the profile of the treatment across time, Figure 8.
Basal behavioral analysis was conducted on zebrafish (Danio rerio) larvae at 5 dpf using an in-house custom-built behavioral analysis system. […]
All data was averaged across replicate larvae for each treatment and control, respectively, and presented as mean ± SEM. Cumulative distance traveled by larvae was measured by summing the incremental distance moved by each larva between frames of video files. […]

[2] = system: zebrafish (Danio rerio) larvae at 5 dpf; test: Zebrafish larvae spontaneous, unstimulated swimming bioassay; assay type: in vivo; details: for Spontaneous swimming, mean distance moved: 10 nM and 100 nM, compared with 1 nM
Protocol: as §1
(§2) Basal behavioral analysis was conducted on zebrafish (Danio rerio) larvae at 5 dpf using an in-house custom-built behavioral analysis system. All assays followed standard protocols as previously described.
(§3) Zebrafish were housed and bred in the AquaCore facility, Monash University, according to standard procedures. Larvae were maintained in E3 media (5mM NaCl, 0.17mM KCl, 0.33 mM CaCl2, 0.33 mM MgSO4, supplemented with 1 x 10 – 5% methylene blue as antimycotic).
(§4) Digital video processing and animal tracking was performed using Ethovision XT ver.16 (Noldus Inc., Wageningen, The Netherlands) using a standardized method as described before.
(§5) All data was averaged across replicate larvae for each treatment and control, respectively, and presented as mean ± SEM. Cumulative distance traveled by larvae was measured by summing the incremental distance moved by each larva between frames of video files. Statistical analysis and data presentation was performed using Prism 8 (GraphPad Software Inc., San Diego, CA, USA). Data sets were tested for outliers and normality of distribution, followed by either one-way or two-way ANOVA testing for significance. […] Where time point data was collected significance was compared for each time domain with that of vehicle controls. Significance was universally set to p < 0.05.

S. aureus ATCC 25923 = system: S. aureus ATCC 25923; design: method as in PMID 8297426; details: cited from earlier work
[3] = system: zebrafish (Danio rerio) larvae at 5 dpf; test: Zebrafish larvae simulated predator response (SPR) bioassay; assay type: in vivo; details: for SPR, profile across concentrations: 10 nM; for SPR, total distance moved vs vehicle control: p < 0.0001
Protocol: as §1, §2, §3, §4, §5

[4] = system: Mediterranean fish species Blennius sphinx; design: method as in PMID 15018063; details: cited from earlier work

| Compound | LPR, mean area under the curve across light and dark cycles vs vehicle control [1] | Spontaneous swimming, profile across concentrations ([2]; 1 nM, 10 nM, 100 nM) | Spontaneous swimming, total distance moved vs vehicle control ([2]; 1 nM, 5 dpf larvae, p < 0.0001) | Spontaneous swimming, mean distance moved [2] | SPR, profile across concentrations ([3]; 1 nM, 100 nM) | also measured |
| --- | --- | --- | --- | --- | --- | --- |
| COC1=C(Br)[C@H](O)[C@](O)(CC#N)C=C1Br [Compound 1, (+)-aeroplysinin-1] | reduced hyperactivity at higher concentrations | increased hypoactivity with higher concentrations | significant hyperactivity effects | reduced mean distance moved | increased hypoactivity with higher concentrations | inhibition zones in disc diffusion assays against S. aureus (S. aureus): large inhibition zones; pIC50 (HIV): 4.84; MIC against S. aureus ATCC 25923 (S. aureus ATCC 25923): 25 µg/mL (≈ 73.8 µM); SPR, total distance moved vs vehicle control ([3]; 1 nM): significant hyperactivity effects |
| COC1=C(Br)[C@H](O)[C@@]2(C=C1Br)CC(C(=O)NCCCCNC(=O)C1=NO[C@]3(C=C(Br)C(OC)=C(Br)[C@@H]3O)C1)=NO2 [Compound 2, aerothionin] | biphasic distribution of mean movement data | biphasic distribution of mean movement data | – | – | biphasic distribution of mean movement data | feeding deterrent activity, Blennius sphinx [4]: significant feeding deterrent activity; Spontaneous swimming, total distance moved vs vehicle control ([2]; all three concentrations (1 nM, 10 nM, 100 nM)): no significant difference to the vehicle control |
| COC1=C(Br)[C@H](O)[C@@]2(C=C1Br)CC(C(=O)NCCCCCNC(=O)C1=NO[C@]3(C=C(Br)C(OC)=C(Br)[C@@H]3O)C1)=NO2 [Compound 3, homoaerothionin] | – | dose dependent hypoactivity effect | significant hyperactivity | reduced mean distance moved | – | SPR, total distance moved vs vehicle control ([3]; 100 nM): Clear hyperactivity |
| COC1(OC)C(Br)=CC(O)(CC(N)=O)C=C1Br [Compound 6, 2-(3,5-dibromo-1-hydroxy-4,4-dimethoxycyclohexa-2,5-dien-1-yl)acetamide] | – | – | – | – | – | Spontaneous swimming, total distance moved vs vehicle control ([2]; 10 nM, p < 0.0001): hyperactivity; Spontaneous swimming, total distance moved ([2]; 100 nM, p < 0.0001): curtailed |
| NC(=O)Cc1c(O)cc(Br)c(O)c1Br [Compound 9, subereaphenol A] | – | – | significant hyperactivity | reduced mean distance moved | – | – |
